Data: patent US20200385396A1, “Compond for treatment or prevention of obesity or diseases related to obesity, and application thereof” (SHANGHAI INSTITUTES FOR BIOLOGICAL SCIENCES, CHINESE …, priority 2017, published 2020)

Legend:
[1] = system: Wnt signal; experiment: TOPFlash reporter gene activity test in HEK293T cells; format: cell-based
Experimental: The HEK293T cells used for the measurement of reporter gene activity were plated at 20 hours before transfection and cultured to about 50% coverage for the transfection. The transfection method was as described above. For HEK293T cells, transfection was performed according to 20 ng TOPFlash, 20 ng GFP and 460 ng lacZ per well, and Wnt3a or Nesfatin-1/NUCB2 protein was added at 18 hours after transfection to stimulate for 6-8 hours, and the cell was lysed with Boehringer Mannheim Luciferase Assay Kit (200 μl/well) for 15 minutes, 50 μl lysate was added in the fluorometer BIO-TEK Synergy2 (Gene Company Limited) to measure the GFP fluorescence intensity in the cell lysate as an internal standard, and then 20 μl luciferase substrate (Roche) was added for the reaction, the luciferase activity was detected in the chemiluminescence channel, and finally the GFP reading was used as an internal standard for homogenization.
We focus on the three small molecules HLY72, HLY103, and HSS49A (FIG. 3a). […] So that the first biochemical experiment design is: whether these three small molecules can compete for the binding of HLY179 to NUCB2 protein.

[2] = system: normal mice; experiment: Food intake of mice after single intraperitoneal injection; format: in vivo, mouse; details: 20 mg/kg intraperitoneal; 0-3 h, 0-6 h, 0-12 h, 0-24 h
Experimental: Mice were intraperitoneally injected with DMSO or HLY72 (dissolved in DMSO) 25 μL within 2 hours before turning off the lamp. During the intragastric experiment, the high concentration of HLY72 dissolved in DMSO was dissolved in 10% cyclodextrin, and the total volume was 100 μL Volume by gavage, so that the final concentration of DMSO was less than 10%. The diet was weighed at the 3rd hour, the 6th hour, the 12th hour, and the 24th hour respectively after the lights out. The corresponding mouse body weight was also weighed at the same time before the daily administration. The fat content of mice was measured with the magnetic resonance fat content measuring instrument of the animal platform in SIBCB.
The next question we are very concerned about is whether HLY78 has similar functions to NUCB2 protein in mice. Up to now, the most classic function reported for NUCB2 protein is to reduce the food intake of mice at night. Therefore, the experiment was designed: 20 mg/kg of HLY78 was injected intraperitoneally within two hours before turning off the lights at night, and then the food intake of the mice was measured at different time points (0-3 h, 0-6 h, 0-12 h, 0-24 h). […] During the three days of the adaptive injection period before HLY78 injection, both groups of mice were injected with DMSO. On the day of injection of HLY78 and the two days before the injection of DMSO, the body weight of the two groups of mice is also the same (FIG. 2b).
Next, two small molecules HLY72 and HLY103 were selected to perform functional experiments on the food intake in mice.

[3] = system: db/db mice and DIO mice; experiment: Long-term administration, weight loss in db/db mice and DIO mice; format: in vivo, mouse
[4] = target: T1, NUCB2 protein (Mus musculus, UniProt P81117); experiment: In vitro binding experiment (streptavidin-agarose pull-down, Western blot) of biotin-linked small molecules with full-length NUCB2; details: mouse full-length NUCB2 expressed in E. coli
T1 construct: Immediately the mouse full-length NUCB2 protein expressed in E. coli was purified; His tag (inferred from pET-28A vector, Ni-NTA purification and His antibody); made in house; host or cells: E. coli BL21-CodonPlus (DE3)
T1 sequence (P81117 25-420): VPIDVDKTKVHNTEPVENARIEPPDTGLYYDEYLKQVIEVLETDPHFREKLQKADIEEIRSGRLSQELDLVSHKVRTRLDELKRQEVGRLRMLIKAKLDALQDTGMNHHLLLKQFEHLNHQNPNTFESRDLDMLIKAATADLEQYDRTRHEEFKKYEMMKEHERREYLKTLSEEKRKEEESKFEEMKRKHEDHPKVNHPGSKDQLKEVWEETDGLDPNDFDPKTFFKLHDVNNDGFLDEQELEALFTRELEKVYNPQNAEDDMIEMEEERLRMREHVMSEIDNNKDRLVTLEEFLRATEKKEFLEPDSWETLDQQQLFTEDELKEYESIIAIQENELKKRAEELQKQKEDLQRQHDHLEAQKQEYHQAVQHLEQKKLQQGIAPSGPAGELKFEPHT
Experimental: (§1) When doing the combining experiments, (1) pre-treating Streptavidin-Agarose, washing Streptavidin-Agarose Beads with IP buffer, and spinning it on the rotor for 10 minutes. (2) Re-binding small molecules HLY179 (20 μM) and Streptavidin-Agarose Beads, spinning it in a refrigeration house at 4° C. for 1-2 hours. (3) When the previous step was performed for about 1 hour, the protein was pre-cleared at the same time, and the protein and the washed Streptavidin-Agarose were rotated in a refrigeration house at 4° C. for 30 minutes. (4) the Streptavidin-Agarose Beads binded with HLY179 was centrifuged, the supernatant was removed, washed again with 600 μL of IP buffer (rotated at 4° C. for 3 minutes), centrifuged, and the supernatant was removed carefully. (5) the pre-cleard protein was added and rotated in a refrigeration house at 4° C. for 2 hours. Washd twice with IP buffer 800 μL, 2 minutes each time (all rotated in a refrigeration house at 4° C.). After the last wash, the supernatant was removed, 40 μL of 2*loading was added and cooked for 10 minutes, stored at −20° C. When doing competitive binding experiments, in the third step while pre-treating the protein adding different small molecule compounds, the final concentration was 100 μM, and the rest was the same. Western Blot: Preparing the appropriate concentration of SDS-PAGE gel, adding protein sample for electrophoretic separation. […]

[5] = target: T1, NUCB2 protein; experiment: Competitive binding experiment: small molecules compete with Bio78 (HLY179) for NUCB2; details: competitor final concentration 100 μM; HLY179 20 μM
Experimental: as §1

CCc1cccc2c1N(C)Cc1cc3c(cc1-2)OCO3 [HLY78]
activity of Wnt signal activation [1]: can synergistically activate
food intake of mice [2]: significantly reduce
weight loss effect [3]: good weight loss effect
binding of purified NUCB2 protein to small molecule [4]: specifically binds
compete with Bio78 for binding to NUCB2 [5]: can compete
